From patent publication US20260234115A1, “LIPID COMPOUNDS, COMPOSITIONS, AND USES THEREOF” (Liberate Bio, Inc., priority 2023, published 2026)
Marks after values point to notes of the source that are not given here.

The molecules below were run on mouse organs (assay: In vivo activity screening in mice: organ mean total flux (p/s) of luciferase activity after injection of F2 LNP pools (Table 6, FIG. 7A-7C)). Conditions: Mouse 3, dose 1.0 mg/kg, luciferase mRNA.
Outline: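 Luciferase output per organ is reported as mean total flux (p/s) from IVIS regions of interest. Organs were collected from perfused C57BL/6J mice and imaged 10-15 min after s.c. D-luciferin, 4-6 h after i.v. dosing. Dosing was 0.25-3 mg/kg luciferase mRNA in F2 LNP pools.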

Row | Compound | Organ Mean Total Flux Femur | Organ Mean Total Flux Heart | Organ Mean Total Flux Kidney | Organ Mean Total Flux Liver | Organ Mean Total Flux Lung | Organ Mean Total Flux Muscle | Organ Mean Total Flux Pancreas | Organ Mean Total Flux Spleen
1 | CCCCCCCCCOC(=O)CCCCC(=O)OCC(COC(=O)CCCCC(=O)OCCCCCCCCC)(COC(=O)CCCCC(=O)OCCCCCCCCC)COC(=O)CCC(CCCCCC)OC(=O)NCCN1CCCC1 (centres unmarked) [Compound 50, O6-[2,2-bis[(6-nonoxy-6-oxo-hexanoyl)oxymethyl]-3-[4-(2-pyrrolidin-1-ylethylcarbamoyloxy)decanoyloxy]propyl]O1-nonyl hexanedioate] | 3.8 p/s (×10^6) | 3.1 p/s (×10^6) | 2.1 p/s (×10^6) | 2413 p/s (×10^6) | 12.1 p/s (×10^6) | 3.8 p/s (×10^6) | 8.8 p/s (×10^6) | 9.0 p/s (×10^6)
2 | CCCCCCC(CCCC)COC(=O)CCCCCC(=O)OCC(COC(=O)CCCCCC(=O)OCC(CCCC)CCCCCC)(COC(=O)CCCCCC(=O)OCC(CCCC)CCCCCC)COC(=O)CCC(CCCCCC)OC(=O)NCCN1CCCC1 (centres unmarked) [Compound 51, O7-[2,2-bis[[7-(2-butyloctoxy)-7-oxo-heptanoyl]oxymethyl]-3-[4-(2-pyrrolidin-1ylethylcarbamoyloxy)decanoyloxy]propyl]O1-(2-butyloctyl) heptanedioate] | 7.5 p/s (×10^6) | 16.0 p/s (×10^6) | 7.2 p/s (×10^6) | 15467 p/s (×10^6) | 59.6 p/s (×10^6) | 16.5 p/s (×10^6) | 4.9 p/s (×10^6) | 9.7 p/s (×10^6)
3 | CCCCCCC(CCC(=O)OCC(COC(=O)CCCCCC(=O)OCCC(CCCCC)CCCCC)(COC(=O)CCCCCC(=O)OCCC(CCCCC)CCCCC)COC(=O)CCCCCC(=O)OCCC(CCCCC)CCCCC)OC(=O)NCCN1CCCC1 (centres unmarked) [Compound 52] | 6.0 p/s (×10^6) | 9.0 p/s (×10^6) | 8.4 p/s (×10^6) | 12143 p/s (×10^6) | 56.0 p/s (×10^6) | 15.1 p/s (×10^6) | 4.7 p/s (×10^6) | 6.1 p/s (×10^6)
4 | CCCCCCC(CCC(=O)OCC(COC(=O)CCCCC(=O)OCCC(CCCC)CCCCC)(COC(=O)CCCCC(=O)OCCC(CCCCC)CCCCC)COC(=O)CCCCC(=O)OCCC(CCCCC)CCCCC)OC(=O)NCCN1CCCC1 (centres unmarked) [Compound 53] | 2.5 p/s (×10^6) | 2.1 p/s (×10^6) | 2.2 p/s (×10^6) | 1286 p/s (×10^6) | 12.1 p/s (×10^6) | 5.5 p/s (×10^6) | 2.3 p/s (×10^6) | 9.3 p/s (×10^6)
5 | CCCCCCC(CCC(=O)OCC(COC(=O)CCCC(=O)OCCC(CCCCC)CCCCC)(COC(=O)CCCC(=O)OCCC(CCCCC)CCCCC)COC(=O)CCCC(=O)OCCC(CCCCC)CCCCC)OC(=O)NCCN1CCCC1 (centres unmarked) [Compound 54, O5-[2,2-bis[[5-oxo-5-(3-pentyloctoxy)pentanoyl]oxymethyl]-3-[4-(2-pyrrolidin-1-ylethylcarbamoyloxy)decanoyloxy]propyl]O1-(3-pentyloctyl) pentanedioate] | 9.0 p/s (×10^6) | 19.3 p/s (×10^6) | 60.3 p/s (×10^6) | 24850 p/s (×10^6) | 81.5 p/s (×10^6) | 19.2 p/s (×10^6) | 3.6 p/s (×10^6) | 9.6 p/s (×10^6)
6 | CCCCCCC(CCC(=O)OCC(COC(=O)CCCCCOC(=O)C(CCCC)CCCCCC)(COC(=O)CCCCCOC(=O)C(CCCC)CCCCCC)COC(=O)CCCCCOC(=O)C(CCCC)CCCCCC)OC(=O)NCCN1CCCC1 (centres unmarked) [Compound 55, [6-[2,2-bis[6-(2-butyloctanoyloxy)hexanoyloxymethyl]-3-[4-(2-pyrrolidin-1ylethylcarbamoyloxy)decanoyloxy]propoxy]-6-oxo-hexyl]2-butyloctanoate] | 6.1 p/s (×10^6) | 4.4 p/s (×10^6) | 2.4 p/s (×10^6) | 4527 p/s (×10^6) | 19.9 p/s (×10^6) | 17.4 p/s (×10^6) | 2.6 p/s (×10^6) | 6.2 p/s (×10^6)
7 | CCCCCCC(CCC(=O)OCC(COC(=O)CCCCOC(=O)C(CCCC)CCCCCC)(COC(=O)CCCCOC(=O)C(CCCC)CCCCCC)COC(=O)CCCCOC(=O)C(CCCC)CCCCCC)OC(=O)NCCN1CCCC1 (centres unmarked) [Compound 56, [5-[2,2-bis[5-(2-butyloctanoyloxy)pentanoyloxymethyl]-3-[4-(2-pyrrolidin-1-ylethylcarbamoyloxy)decanoyloxy]propoxy]-5-oxo-pentyl]2-butyloctanoate] | 6.4 p/s (×10^6) | 17.7 p/s (×10^6) | 9.4 p/s (×10^6) | 15800 p/s (×10^6) | 66.6 p/s (×10^6) | 19.7 p/s (×10^6) | 3.4 p/s (×10^6) | 13.0 p/s (×10^6)

Same assay, conditions: Mouse 5, dose 0.5 mg/kg, luciferase mRNA

Row | Compound | Organ Mean Total Flux Femur | Organ Mean Total Flux Heart | Organ Mean Total Flux Kidney | Organ Mean Total Flux Liver | Organ Mean Total Flux Lung | Organ Mean Total Flux Muscle | Organ Mean Total Flux Pancreas | Organ Mean Total Flux Spleen
8 | CCCCC/C=C\CCCOC(=O)CCCCC(=O)OCC(COC(=O)CCCCC(=O)OCCC/C=C\CCCCC)(COC(=O)CCCCC(=O)OCCC/C=C\CCCCC)COC(=O)CCC(CCCCCC)OC(=O)NCCN1CCCC1 (centres unmarked) [Compound 47, O6-[2,2-bis[[6-[(Z)-dec-4-enoxy]-6-oxo-hexanoyl]oxymethyl]-3-[4-(2-pyrrolidin-1ylethylcarbamoyloxy)decanoyloxy]propyl]O1-[(Z)-dec-4-enyl]hexanedioate] | 15.1 p/s (×10^6) | 1.7 p/s (×10^6) | 2.5 p/s (×10^6) | 974.3 p/s (×10^6) | 25.7 p/s (×10^6) | 62.4 p/s (×10^6) | 4.4 p/s (×10^6) | 67.0 p/s (×10^6)

Same assay, conditions: Mouse 11, dose 0.5 mg/kg, luciferase mRNA

Row | Compound | Organ Mean Total Flux Femur | Organ Mean Total Flux Heart | Organ Mean Total Flux Kidney | Organ Mean Total Flux Liver | Organ Mean Total Flux Lung | Organ Mean Total Flux Muscle | Organ Mean Total Flux Pancreas | Organ Mean Total Flux Spleen
9 | CCCC/C=C\CCOC(=O)CCCCCC(=O)OCC(COC(=O)CCCCCC(=O)OCC/C=C\CCCC)(COC(=O)CCCCCC(=O)OCC/C=C\CCCC)COC(=O)CCC(CCCCCC)OC(=O)NCCN1CCCC1 (centres unmarked) [Compound 44, O7-[2,2-bis[[7-[(Z)-oct-3-enoxy]-7-oxo-heptanoyl]oxymethyl]-3-[4-(2-pyrrolidin-1-ylethylcarbamoyloxy)decanoyloxy]propyl]O1-[(Z)-oct-3-enyl]heptanedioate] | 5.6 p/s (×10^6) | 0.7 p/s (×10^6) | 1.3 p/s (×10^6) | 415.7 p/s (×10^6) | 6.5 p/s (×10^6) | 22.6 p/s (×10^6) | 3.1 p/s (×10^6) | 36.0 p/s (×10^6)
10 | CCCCC/C=C\CCCOC(=O)CCCCCC(=O)OCC(COC(=O)CCCCCC(=O)OCCC/C=C\CCCCC)(COC(=O)CCCCCC(=O)OCCC/C=C\CCCCC)COC(=O)CCC(CCCCCC)OC(=O)NCCN1CCCC1 (centres unmarked) [Compound 45, O7-[2,2-bis[[7-[(Z)-dec-4-enoxy]-7-oxo-heptanoyl]oxymethyl]-3-[4-(2-pyrrolidin-1ylethylcarbamoyloxy)decanoyloxy]propyl]O1-[(Z)-dec-4-enyl]heptanedioate] | 1.0 p/s (×10^6) | 1.1 p/s (×10^6) | 0.9 p/s (×10^6) | 809.3 p/s (×10^6) | 7.2 p/s (×10^6) | 5.6 p/s (×10^6) | 0.5 p/s (×10^6) | 6.0 p/s (×10^6)
11 | CCCCC/C=C\CCCOC(=O)CCCCCCC(=O)OCC(COC(=O)CCCCCCC(=O)OCCC/C=C\CCCCC)(COC(=O)CCCCCCC(=O)OCCC/C=C\CCCCC)COC(=O)CCC(CCCCCC)OC(=O)NCCN1CCCC1 (centres unmarked) [Compound 46, 8,8′-di((Z)-dec-4-en-1-yl) O′1,O1-(2-(((8-(((Z)-dec-4-en-1-yl)oxy)-8-oxooctanoyl)oxy)methyl)-2-(((4-(((2-(pyrrolidin-1-yl)ethyl)carbamoyl)oxy)decanoyl)oxy)methyl)propane-1,3-diyl) di(octanedioate)] | 1.8 p/s (×10^6) | 4.1 p/s (×10^6) | 2.1 p/s (×10^6) | 3107 p/s (×10^6) | 17.8 p/s (×10^6) | 4.2 p/s (×10^6) | 0.9 p/s (×10^6) | 1.8 p/s (×10^6)

Same assay, conditions: Mouse 13, dose 0.5 mg/kg, luciferase mRNA

Row | Compound | Organ Mean Total Flux Femur | Organ Mean Total Flux Heart | Organ Mean Total Flux Kidney | Organ Mean Total Flux Liver | Organ Mean Total Flux Lung | Organ Mean Total Flux Muscle | Organ Mean Total Flux Pancreas | Organ Mean Total Flux Spleen
12 | CCCCC/C=C\CCOC(=O)CCCC(=O)OCC(COC(=O)CCCC(=O)OCC/C=C\CCCCC)(COC(=O)CCCC(=O)OCC/C=C\CCCCC)COC(=O)CCC(CCCCCC)OC(=O)NCCN1CCCC1 (centres unmarked) [Compound 49, O5-[2,2-bis[[5-[(Z)-non-3-enoxy]-5-oxo-pentanoyl]oxymethyl]-3-[4-(2-pyrrolidin-1-ylethylcarbamoyloxy)decanoyloxy]-propyl]O1-[(Z)-non-3-enyl]pentanedioate] | 10.2 p/s (×10^6) | 0.5 p/s (×10^6) | 1.4 p/s (×10^6) | 185.5 p/s (×10^6) | 11.8 p/s (×10^6) | 2.9 p/s (×10^6) | 7.5 p/s (×10^6) | 57.1 p/s (×10^6)
13 | CCCCCCCCCOC(=O)CCCCC(=O)OCC(COC(=O)CCCCC(=O)OCCCCCCCCC)(COC(=O)CCCCC(=O)OCCCCCCCCC)COC(=O)CCC(CCCCCC)OC(=O)NCCN1CCCC1 (centres unmarked) [Compound 50, O6-[2,2-bis[(6-nonoxy-6-oxo-hexanoyl)oxymethyl]-3-[4-(2-pyrrolidin-1-ylethylcarbamoyloxy)decanoyloxy]propyl]O1-nonyl hexanedioate] | 1.2 p/s (×10^6) | 1.0 p/s (×10^6) | 0.7 p/s (×10^6) | 569.7 p/s (×10^6) | 4.7 p/s (×10^6) | 2.3 p/s (×10^6) | 1.5 p/s (×10^6) | 4.7 p/s (×10^6)
